Test results: patent US6908934B2, “Therapeutic compounds for treating dyslipidemic conditions” (Merck & Co., Inc., priority 2001, dated 2005)

System: ABCA1 mRNA
Assay: cells
Type: cell-based
Conditions: Primary macrophage, human primary macrophages, 18 h + 6 h treatment, vs DMSO control, read-out: Fold Induction of ABCA1 mRNA (Mean ± SEM)
Method: Induction of ABCA1 mRNA Levels
Human Primary Macrophages were used to test the ability of LXR ligands to induce the expression of ABCA1 mRNA. The collection and purification of monocytes and their subsequent differentiation into macrophages by culturing in Teflon jars for 7-9 days was performed according to Wright and Silverstein J. Exp. Med. V156, October 1982 pp 1149-1164. Cells were harvested from the Teflon jars and seeded into appropriate vessels in RPMI1640 plus 12% human serum and antibiotics. Cells were allowed to recover overnight before treatment. Treatment was for 18 hours with the described compounds, followed by a re-application of fresh compounds for an additional 6 hours in DMEM minus Phenol Red with 10% charcoal stripped FCS. The cells were harvested and total RNA prepared using the phenol/guanidine isothiocyanate method as supplied and described by Molecular Research Center, Inc. (TRI REAGENT® Cat. No. TR 118). ABCA1 mRNA levels in the total RNA were measured using the TaqMan® mRNA quantitation system, following protocols published by the manufacturer (Perkin-Elmer). The oligonucleotide PCR primers used to detect ABCA1 were:
The oligonucleotide probe used was:
6FAM-[…]-TAMRA ABCA1 mRNA levels in each sample were normalized to the mRNA levels for the 23 kDa highly basic protein. The oligonucleotide PCR primers used to detect the 23 kDa highly basic protein were: […]

CC(C)CC[C@@H](O)[C@@H](C)[C@H]1CC[C@H]2[C@@H]3CC=C4C[C@@H](O)CC[C@]4(C)[C@H]3CC[C@]12C [22-(R)-hydroxycholesterol]
fold induction at 10 µM: 8 ± 1.37
